Source: PMC9000871, “Rhodamine 101 Conjugates of Triterpenoic Amides Are of Comparable Cytotoxicity as Their Rhodamine B Analogs” (Molecules, 2022)
Counter-ions that a name gives are not always drawn.

Tests used:
[1] = system: A2780 (ovarian carcinoma); assay: SRB cytotoxicity assay, A2780; type: cell-based; conditions: Homo sapiens, 72 h of treatment, mean ± standard mean error
Source text: (§1) The cell lines were obtained from Department of Oncology (Martin-Luther-University Halle Wittenberg; they were bought from ATCC; A 375 (CRL-1619), HT29 (HTB-38), MCF7 (HTM-22), A2780 (HTP-77), FaDu (HTP-43), NIH 3T3 (CRL-1658), HEK-293 (CRL-1573)). Cultures were maintained as monolayers in RPMI 1640 medium with L-glutamine (Capricorn Scientific GmbH, Ebsdorfergrund, Germany) supplemented with 10% heat inactivated fetal bovine serum (Sigma-Aldrich Chemie GmbH, Steinheim, Germany) and penicillin/streptomycin (1%, Capricorn Scientific GmbH, Ebsdorfergrund, Germany) at 37 °C in a humidified atmosphere with 5% CO2. The cytotoxicity of the compounds was evaluated using the sulforhodamine-B (Kiton-Red S, ABCR) micro culture colorimetric assay using confluent cells in 96-well plates with the seeding of the cells on day 0 applying appropriate cell densities to prevent confluence of the cells during the period of the experiment. On day 1, the cells were treated with six different concentrations (1, 3, 7, 12, 20, and 30 μM); thereby, the final concentration of DMSO was always <0.5%, generally regarded as non-toxic to the cells. On day 4, the supernatant medium was discarded; the cells were fixed with 10% trichloroacetic acid. After another day at 4 °C, the cells were washed in a strip washer and dyed with the SRB solution (100 μL, 0.4% in 1% acetic acid) for about 20 min to be followed by washing of the plates (four times, 1% acetic acid) and air-drying overnight. Furthermore, tris base solution (200 μL, 10 mM) was added to each well and absorbance was measured at λ = 570 nm employing a reader (96 wells, Tecan Spectra, Crailsheim, Germany). The EC50 values were averaged from three independent experiments performed each in triplicate calculated from semi logarithmic dose response curves applying a non-linear four-parameter Hills-slope equation (GraphPad Prism5; variables top and bottom were set to 100 and 0, respectively).

[2] = system: HT29 (colon adenocarcinoma); assay: SRB cytotoxicity assay, HT29; type: cell-based, human; conditions: 72 h of treatment, mean ± standard mean error
Source text: as §1

[3] = system: FaDu (hypopharyngeal carcinoma); assay: SRB cytotoxicity assay, FaDu; type: cell-based; conditions: Homo sapiens, 72 h of treatment, mean ± standard mean error
Source text: as §1

[4] = system: A375 (melanoma); assay: SRB cytotoxicity assay, A375; type: cell-based, human; conditions: 72 h of treatment, mean ± standard mean error
Source text: as §1

[5] = system: MCF-7 (breast adenocarcinoma); assay: SRB cytotoxicity assay, MCF-7; type: cell-based; conditions: Homo sapiens, MCF7, 72 h of treatment, mean ± standard mean error
Source text: as §1

[6] = system: NIH 3T3 (fibroblasts), non-malignant; assay: SRB cytotoxicity assay, NIH 3T3; type: cell-based; conditions: Mus musculus, NIH3T3, 72 h, 72 h of treatment, mean ± standard mean error
Source text: as §1

Structure (SMILES) | melting point | EC50 [1] | EC50 ([2]; Homo sapiens, HT-29, 72 h) | EC50 [3] | EC50 ([4]; Homo sapiens, A-375, 72 h) | EC50 [5] | EC50 [6] | EC50 [4] | EC50 [2]
C=C(C)[C@@H]1CC[C@]2(C(=O)N3CCN(C(=O)c4ccccc4-c4c5ccc(=[N+](CC)CC)cc-5oc5cc(N(CC)CC)ccc45)CC3)CC[C@]3(C)C(CCC4[C@@]5(C)CC[C@H](OC(C)=O)C(C)(C)C5CC[C@]43C)C12 (stereo partly drawn) (as salt: chloride) [compound 13, 9-[2-[[4-(3β-Acetyloxy-28-oxo-lup-20(29)en-28-yl)-1-piperazinyl]carbonyl]phenyl]-3,6-bis(diethylamino)-xanthylium chloride] | 247 to 252 °C | – | – | – | – | – | – | – | –
CCN(CC)c1ccc2c(-c3ccccc3C(=O)N3CCN(C(=O)[C@]45CCC(C)(C)CC4C4=CCC6[C@@]7(C)CC[C@H](OC(C)=O)C(C)(C)C7CC[C@@]6(C)[C@]4(C)CC5)CC3)c3ccc(=[N+](CC)CC)cc-3oc2c1 (stereo partly drawn) (as salt: chloride) [compound 14, 9-[2-[[4-(3β-Acetyloxy-28-oxo-olean-12-en-28-yl)-1-piperazinyl]carbonyl]phenyl]-3,6-bis(diethylamino)-xanthylium chloride] | 246 to 252 °C | – | – | – | – | – | – | – | –
CCN(CC)c1ccc2c(-c3ccccc3C(=O)N3CCN(C(=O)[C@]45CC[C@@H](C)[C@H](C)C4C4=CCC6[C@@]7(C)CC[C@H](OC(C)=O)C(C)(C)C7CC[C@@]6(C)[C@]4(C)CC5)CC3)c3ccc(=[N+](CC)CC)cc-3oc2c1 (stereo partly drawn) (as salt: chloride) [compound 15, 9-[2-[[4-(3β-Acetyloxy-28-oxo-ursan-12-en-28-yl)-1-piperazinyl]carbonyl]phenyl]-3,6-bis(diethylamino)-xanthylium chloride] | 245 to 251 °C | – | – | – | – | – | – | – | –
CCN(CC)c1ccc2c(-c3ccccc3C(=O)N3CCN(C(=O)[C@]45CC[C@@H](C(C)=O)C4C4CCC6[C@@]7(C)CC[C@H](OC(C)=O)C(C)(C)C7CC[C@@]6(C)[C@]4(C)CC5)CC3)c3ccc(=[N+](CC)CC)cc-3oc2c1 (stereo partly drawn) (as salt: chloride) [compound 16, 9-[2-[[4-(3β-Acetyloxy-20,28-dioxo-30-norlupan-28-yl)-1-piperazinyl]carbonyl]phenyl]-3,6-bis(diethylamino)-xanthylium chloride] | 247 to 254 °C | – | – | – | – | – | – | – | –
CCN(CC)c1ccc2c(-c3ccccc3C(=O)N3CCCN(C(=O)[C@]45CC[C@@H](C(C)=O)C4C4CCC6[C@@]7(C)CC[C@H](OC(C)=O)C(C)(C)C7CC[C@@]6(C)[C@]4(C)CC5)CC3)c3ccc(=[N+](CC)CC)cc-3oc2c1 (stereo partly drawn) (as salt: chloride) [compound 20, 9-[2-[[4-(3β-Acetyloxy-20,28-dioxo-30-norlupan-28-yl)-1-homopiperazinyl]carbonyl]phenyl]-3,6-bis(diethylamino)-xanthylium chloride] | 248 to 250 °C (dec.) | – | – | – | – | – | – | – | –
CC(=O)O[C@H]1CC[C@@]2(C)C(CC[C@]3(C)C2CC=C2C4CC(C)(C)CC[C@]4(C(=O)N4CCCN(C(=O)c5ccccc5C5=c6cc7c8c(c6Oc6c5cc5c9c6CCCN9CCC5)CCC[N+]=8CCC7)CC4)CC[C@]23C)C1(C)C (stereo partly shown) (as salt: chloride) [compound 26] | > 300 °C | – | – | – | – | – | – | – | –
CC(=O)O[C@H]1CC[C@@]2(C)C(CC[C@]3(C)C2CC=C2C4[C@@H](C)[C@H](C)CC[C@]4(C(=O)N4CCCN(C(=O)c5ccccc5C5=c6cc7c8c(c6Oc6c5cc5c9c6CCCN9CCC5)CCC[N+]=8CCC7)CC4)CC[C@]23C)C1(C)C (stereo partly shown) (as salt: chloride) [compound 27] | > 300 °C | – | – | – | – | – | – | – | –
CC(=O)O[C@H]1CC[C@@]2(C)C(CC[C@]3(C)C2CCC2C4[C@H](C(C)=O)CC[C@]4(C(=O)N4CCCN(C(=O)c5ccccc5C5=c6cc7c8c(c6Oc6c5cc5c9c6CCCN9CCC5)CCC[N+]=8CCC7)CC4)CC[C@]23C)C1(C)C (stereo partly shown) (as salt: chloride) [compound 28] | > 300 °C | – | – | – | – | – | – | – | –
C=C(C)[C@@H]1CC[C@]2(C(=O)O)CC[C@]3(C)[C@H](CC[C@@H]4[C@@]5(C)CC[C@H](O)C(C)(C)[C@@H]5CC[C@]43C)[C@@H]12 [BA, betulinic acid, reference compound] | – | 8800 ± 900 nM | 14400 ± 2300 nM | 13700 ± 900 nM | 17700 ± 400 nM | 10200 ± 1200 nM | 16100 ± 1400 nM | – | –
COc1cccc2c1C(=O)c1c(O)c3c(c(O)c1C2=O)C[C@@](O)(C(=O)CO)C[C@@H]3O[C@H]1C[C@H](N)[C@H](O)[C@H](C)O1 [DX, doxorubicin, reference compound] | – | 20 ± 10 nM | 900 ± 200 nM | 1700 ± 300 nM | – | 1100 ± 300 nM | – | – | –
CC1(C)CC[C@]2(C(=O)O)CC[C@]3(C)C(=CC[C@@H]4[C@@]5(C)CC[C@H](O)C(C)(C)[C@@H]5CC[C@]43C)[C@@H]2C1 [OA, oleanolic acid, reference compound] | – | > 30000 nM | > 30000 nM | > 30000 nM | > 30000 nM | > 30000 nM | > 30000 nM | – | –
CC(=O)[C@@H]1CC[C@]2(C(=O)O)CC[C@]3(C)[C@H](CC[C@@H]4[C@@]5(C)CC[C@H](O)C(C)(C)[C@@H]5CC[C@]43C)[C@@H]12 [PA, platanic acid, reference compound] | – | > 30000 nM | > 30000 nM | > 30000 nM | > 30000 nM | > 30000 nM | > 30000 nM | – | –
C[C@H]1[C@H](C)CC[C@]2(C(=O)O)CC[C@]3(C)C(=CC[C@@H]4[C@@]5(C)CC[C@H](O)C(C)(C)[C@@H]5CC[C@]43C)[C@H]12 [UA, ursolic acid, reference compound] | – | – | – | 18200 ± 1700 nM | 15400 ± 1000 nM | – | – | – | –
C=C(C)[C@@H]1CC[C@]2(C(=O)O)CC[C@]3(C)[C@H](CC[C@@H]4[C@@]5(C)CC[C@H](OC(C)=O)C(C)(C)[C@@H]5CC[C@]43C)[C@@H]12 [compound 1, 3β-Acetyloxy-lup-20(29)-en-28-oic Acid] | – | 18300 ± 500 nM | 21300 ± 2000 nM | 7200 ± 1200 nM | 21300 nM | 11000 ± 500 nM | > 30000 nM | 19200 ± 1700 nM | –
CC(=O)O[C@H]1CC[C@@]2(C)C(CC[C@]3(C)C2CC=C2C4CC(C)(C)CC[C@]4(C(=O)N4CCNCC4)CC[C@]23C)C1(C)C (stereo partly drawn) [compound 6, 3β-Acetyloxy-28-(1-piperazinyl)-olean-12-en-28-one] | 172 to 175 °C | 1700 ± 100 nM | 1300 ± 100 nM | – | 1400 ± 200 nM | 1700 ± 200 nM | 1700 ± 100 nM | – | –
CC(=O)O[C@H]1CC[C@@]2(C)C(CC[C@]3(C)C2CC=C2C4[C@@H](C)[C@H](C)CC[C@]4(C(=O)N4CCNCC4)CC[C@]23C)C1(C)C (stereo partly drawn) [compound 7, 3β-Acetyloxy-28-(1-piperazinyl)-urs-12-en-28-one] | 187 to 190 °C | 2100 ± 100 nM | 1900 ± 300 nM | – | 2000 ± 400 nM | 1700 ± 200 nM | 2100 ± 100 nM | – | –
CC(=O)O[C@H]1CC[C@@]2(C)C(CC[C@]3(C)C2CCC2C4[C@H](C(C)=O)CC[C@]4(C(=O)N4CCNCC4)CC[C@]23C)C1(C)C (stereo partly drawn) [compound 8, 3β-Acetyloxy-28-(1-piperazinyl)-30-norlupane-20,28-dione] | 127 to 130 °C | 2600 ± 400 nM | 3860 nM | – | 1900 ± 400 nM | 2700 ± 300 nM | 1300 ± 100 nM | – | 3900 ± 200 nM
CC(=O)O[C@H]1CC[C@@]2(C)C(CC[C@]3(C)C2CC=C2C4CC(C)(C)CC[C@]4(C(=O)N4CCCNCC4)CC[C@]23C)C1(C)C (stereo partly drawn) [compound 10, 3β-Acetyloxy-28-(1-homopiperazinyl)-olean-12-en-28-one] | 182 to 185 °C | 2200 ± 100 nM | 1900 ± 100 nM | – | 1900 ± 900 nM | 1600 ± 100 nM | 1800 ± 200 nM | – | –
CC(=O)O[C@H]1CC[C@@]2(C)C(CC[C@]3(C)C2CC=C2C4[C@@H](C)[C@H](C)CC[C@]4(C(=O)N4CCCNCC4)CC[C@]23C)C1(C)C (stereo partly drawn) [compound 11, 3β-Acetyloxy28-(1-homopierazinyl)-urs-12-en-28-one] | 171 to 175 °C | 2900 ± 240 nM | 2000 ± 100 nM | – | 3200 ± 200 nM | 2400 ± 100 nM | 900 ± 100 nM | – | –
CC(=O)O[C@H]1CC[C@@]2(C)C(CC[C@]3(C)C2CCC2C4[C@H](C(C)=O)CC[C@]4(C(=O)N4CCCNCC4)CC[C@]23C)C1(C)C (stereo partly drawn) [compound 12, 3β-Acetyloxy-28-(1-homopiperazinyl)-30-norlupane-20,28-dione] | 162 to 165 °C | 1600 ± 100 nM | 2300 ± 200 nM | – | 900 ± 100 nM | 1800 ± 200 nM | 600 ± 100 nM | – | –
